These are literature values, as cited in patent publication US20030064123A1, “DHEA supplement for increasing women's libido” (priority 2001, published 2003).

For series [1] the following is noted: post-menopausal women, oral DHEA 25 mg/day, after six months.
Series [2] relates to ventrobasal complex of the thalamus. The settings on record: rat.
Series [3] concerns androgen-deficient female patients. The settings on record: testosterone injections.

Regarding `C[C@]12CC[C@H](O)CC1=CC[C@@H]1[C@@H]2CC[C@]2(C)C(=O)CC[C@@H]12` [DHEA, Dihydroepiandosterone], in series [1], the estrogen levels entry was “returned to premenopausal levels” and the testosterone levels result is given as “returned to premenopausal levels”.

On to `N=C(N)NCCC[C@H](N)C(=O)O` [L-arginine], for which the “excitatory amino acid responses and sonato sensory transmission” value in series [2] is on record as “enhancement”.

Consider `C[C@]12CC[C@H]3[C@@H](CCC4=CC(=O)CC[C@@]43C)[C@@H]1CC[C@@H]2O` [testosterone], for which the “libido and ability to become aroused and achieve a satisfactory orgasm” value in series [3] is “resolved”.
